Experimental data published in the CheMixHub viscosity set.

Test: xn = mol fraction of the nth substance listed
Conditions: 101 kPa

Oc1ccccc1Cl + CNc1ccccc1
viscosity [mPa·s]
Conditions	x1 = 0.1013	x1 = 0.2024	x1 = 0.3005	x1 = 0.4032	x1 = 0.5007	x1 = 0.6027	x1 = 0.7	x1 = 0.7936	x1 = 0.9042
298 K	2.395	2.887	3.546	4.142	4.746	4.883	4.922	4.587	3.898
303 K	2.112	2.493	2.984	3.445	3.801	3.963	3.966	3.715	3.352
308 K	1.84	2.126	2.526	2.863	3.129	3.277	3.305	3.117	2.77
313 K	1.622	1.826	2.115	2.42	2.678	2.75	2.793	2.704	2.506
318 K	1.443	1.598	1.883	2.075	2.302	2.34	2.42	2.342	2.198

CCCN + COCCOCCO
298.15 K
Conditions	viscosity [mPa·s]
x2 = 0.0255	0.399
x2 = 0.0563	0.444
x2 = 0.0879	0.493
x2 = 0.1249	0.562
x2 = 0.1605	0.634
x2 = 0.2036	0.735
x2 = 0.2453	0.842
x2 = 0.2996	1.01
x2 = 0.3405	1.159
x2 = 0.3854	1.334
x2 = 0.4144	1.455
x2 = 0.4488	1.601
x2 = 0.4769	1.726
x2 = 0.5252	1.953
x2 = 0.5736	2.163
x2 = 0.6235	2.386
x2 = 0.6581	2.523
x2 = 0.7072	2.718
x2 = 0.7563	2.892
x2 = 0.7974	3.02
x2 = 0.8476	3.165
x2 = 0.8779	3.225
x2 = 0.9088	3.297
x2 = 0.9387	3.351
x2 = 0.9526	3.375
